Source: the supplement of paper PMC6045584
± gives the standard deviation of the averaged measurements.

Columns and labels:
DECITABINE = compound: Nc1ncn([C@H]2C[C@H](O)[C@@H](CO)O2)c(=O)n1 [DECITABINE]; assay: surviving fraction relative to DMSO-only wells; higher = less growth inhibition; conditions: exposure time: 5 days
In short: (§1)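 After seeding at 250–500 cells per well in 384-well plates and a 24-hour wait, log-phase tumour cell lines were exposed without interruption for five days to inhibitors at 0.5, 1, 5, 10, 50, 100, 500 and 1000 nM. CellTiter-Glo luminescence was recorded after 10 minutes at room temperature. Viability is reported as surviving fraction, the luminescence normalised to the median of DMSO-only wells.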

VISMODEGIB = compound: CS(=O)(=O)c1ccc(C(=O)Nc2ccc(Cl)c(-c3ccccn3)c2)c(Cl)c1 [VISMODEGIB]; assay: as above; conditions: exposure time: 5 days
In short: as §1

| Test System | surviving fraction (DECITABINE; 0.5 nM) | surviving fraction (DECITABINE; 1 nM) | surviving fraction (DECITABINE; 5 nM) | surviving fraction (DECITABINE; 10 nM) | surviving fraction (DECITABINE; 50 nM) | surviving fraction (DECITABINE; 100 nM) | surviving fraction (DECITABINE; 500 nM) | surviving fraction (DECITABINE; 1000 nM) | surviving fraction (VISMODEGIB; 0.5 nM) | surviving fraction (VISMODEGIB; 1 nM) | surviving fraction (VISMODEGIB; 5 nM) | surviving fraction (VISMODEGIB; 10 nM) | surviving fraction (VISMODEGIB; 50 nM) | surviving fraction (VISMODEGIB; 100 nM) | surviving fraction (VISMODEGIB; 500 nM) | surviving fraction (VISMODEGIB; 1000 nM) |
| --- | --- | --- | --- | --- | --- | --- | --- | --- | --- | --- | --- | --- | --- | --- | --- | --- |
| CCK81 LARGE INTESTINE | 0.759 ± 0.099 | 0.761 ± 0.034 | 0.578 ± 0.11 | 0.707 ± 0.12 | 0.367 ± 0.058 | 0.348 ± 0.035 | 0.308 ± 0.035 | 0.286 ± 0.094 |  |  |  |  |  |  |  |  |
| G292 BONE | 0.958 ± 0.057 | 0.953 ± 0.026 | 0.924 ± 0.037 | 0.922 ± 0.025 | 0.711 ± 0.0099 | 0.678 ± 0.043 | 0.571 ± 0.039 | 0.543 ± 0.026 | 0.963 ± 0.032 | 0.989 ± 0.018 | 1.01 ± 0.057 | 0.96 ± 0.016 | 0.959 ± 0.049 | 0.975 ± 0.019 | 0.927 ± 0.061 | 0.932 ± 0.014 |
| HCC38 BREAST | 1.37 ± 0.092 | 1.14 ± 0.13 | 1.13 ± 0.098 | 0.937 ± 0.044 | 0.781 ± 0.019 | 0.656 ± 0.027 | 0.441 ± 0.0081 | 0.409 ± 0.064 | 0.743 ± 0.17 | 0.928 ± 0.2 | 0.895 ± 0.31 | 1.12 ± 0.38 | 0.668 ± 0.12 | 0.677 ± 0.24 | 0.743 ± 0.24 | 0.609 ± 0.11 |
| HCC70 BREAST | 1.07 ± 0.12 | 0.991 ± 0.14 | 1.1 ± 0.05 | 1.02 ± 0.092 | 0.967 ± 0.024 | 0.956 ± 0.087 | 0.844 ± 0.026 | 0.679 ± 0.076 | 0.977 ± 0.041 | 0.964 ± 0.067 | 1.14 ± 0.055 | 1.11 ± 0.012 | 1.11 ± 0.084 | 1.12 ± 0.048 | 1.04 ± 0.037 | 1.1 ± 0.026 |
| HMLE3 BREAST | 1.1 ± 0.049 | 1.03 ± 0.082 | 1.14 ± 0.03 | 1.14 ± 0.058 | 0.95 ± 0.12 | 0.922 ± 0.051 | 0.605 ± 0.055 | 0.551 ± 0.054 | 0.911 ± 0.11 | 0.929 ± 0.037 | 1 ± 0.03 | 0.949 ± 0.013 | 0.882 ± 0.096 | 0.969 ± 0.038 | 0.882 ± 0.15 | 0.893 ± 0.11 |
| HMT3552 BREAST | 1.06 ± 0.029 | 1.024 ± 0.01 | 1.09 ± 0.05 | 1.02 ± 0.057 | 1.27 ± 0.029 | 1.21 ± 0.037 | 1.18 ± 0.06 | 1.14 ± 0.028 | 1.07 | 1.02 | 1.05 | 1.06 | 0.804 | 1.16 | 0.925 | 0.937 |
| HS578T BREAST | 0.882 ± 0.16 | 0.838 ± 0.018 | 0.812 ± 0.079 | 0.837 ± 0.077 | 0.98 ± 0.071 | 0.943 ± 0.2 | 0.905 ± 0.08 | 1.02 ± 0.064 | 0.936 ± 0.14 | 0.934 ± 0.077 | 1.05 ± 0.062 | 0.964 ± 0.069 | 0.871 ± 0.11 | 0.881 ± 0.051 | 0.913 ± 0.15 | 0.983 ± 0.15 |
